Assay results taken from patent US10647598B2, “Antimicrobial and algicidal agent for cooling water system” (KURITA WATER INDUSTRIES LTD., priority 2013, dated 2020).

Columns and labels:
Algae A = assay: Test tube algicidal test on algae A sampled from cooling tower A; type: cell-based, diatoms, containing green algae; set-up: key to the marks not given beside the values; conditions: visual inspection after 3 days at north-side window; CSA and algicidal agent amounts per example as in Table 1
Method: (§1) A test water system containing algae was prepared as described below.
(§2) Secondary treated water obtained by filtrating sewage using a filter having a pore diameter of 0.1 μm was received in a beaker having a volume of 1 L, and to this secondary treated water, 1 g of algae sampled from each of cooling towers A, B, and C in which an antimicrobial treatment was performed using a chlorosulfamic acid was added. Algae A sampled from the cooling tower A were diatoms and contained green algae. Algae B sampled from the cooling tower B were primarily formed of green algae and contained blue-green algae and diatoms. Algae C sampled from the cooling tower C were primarily formed of blue-green algae and contained green algae and diatoms.
(§3) After being raveled and sufficiently dispersed in the beaker, the algae A, B, and C were each dispensed into test tubes.
(§4) In Examples 1 to 5 and Comparative Examples 8 to 11 and 13 to 16, a chlorosulfamic acid (abbreviated as “CSA”, and the addition amount represents the residual chlorine concentration) and one of 5-chloro-2-methyl-4-isothiazolone-3-one (abbreviated as “MIT”), 2,2-dibromo-3-nitrilopropion amide (abbreviated as “DBNPA”), and 2-bromo-2-nitro-1,3-propanediol (abbreviated as “BNP) were added to each test tube so as to have predetermined concentrations shown in Table 1. In Comparative Example 6, MIT was only added. In Comparative Example 7, DBNPA was only added. In Comparative Example 12, BNP was only added. In Comparative Example 17, no chemical agents were added. Subsequently, after the test tubes were left for 3 days at a north-side window so as not to be exposed to direct sunlight, the conditions of the algae were observed by visual inspection and evaluated in accordance with the following criteria.
(§5) <Evaluation Criteria> • −: Reduction (death) of algae is apparently observed from the start of the test. • ±: Condition is the same as that at the start of the test. • +: Slight increase of algae is observed as compared to the condition at the start of the test. • ++: Apparent increase of algae is observed as compared to the condition at the start of the test. • +++: Significant increase of algae is observed as compared to the condition at the start of the test.

Algae B = assay: Test tube algicidal test on algae B sampled from cooling tower B; type: cell-based, green algae, containing blue-green algae and diatoms; conditions: visual inspection after 3 days at north-side window; CSA and algicidal agent amounts per example as in Table 1
Method: as §1, §2, §3, §4, §5

Algae C = assay: Test tube algicidal test on algae C sampled from cooling tower C; type: cell-based, blue-green algae, containing green algae and diatoms; set-up: key to the marks not given beside the values; conditions: visual inspection after 3 days at north-side window; CSA and algicidal agent amounts per example as in Table 1
Method: as §1, §2, §3, §4, §5

algae A to C = assay: Test tube algicidal test, overall assessment; type: cell-based; conditions: Table 1, algae A to C, 3 days
Method: as §1, §2, §3
In Examples 1 to 5 and Comparative Examples 8 to 11 and 13 to 16, a chlorosulfamic acid (abbreviated as “CSA”, and the addition amount represents the residual chlorine concentration) and one of 5-chloro-2-methyl-4-isothiazolone-3-one (abbreviated as “MIT”), 2,2-dibromo-3-nitrilopropion amide (abbreviated as “DBNPA”), and 2-bromo-2-nitro-1,3-propanediol (abbreviated as “BNP) were added to each test tube so as to have predetermined concentrations shown in Table 1. In Comparative Example 6, MIT was only added. In Comparative Example 7, DBNPA was only added. In Comparative Example 12, BNP was only added. In Comparative Example 17, no chemical agents were added. Subsequently, after the test tubes were left for 3 days at a north-side window so as not to be exposed to direct sunlight, the conditions of the algae were observed by visual inspection and evaluated in accordance with the following criteria. […]

SMILES | Evaluation Results Algae A (Algae A) | Evaluation Results Algae B (Algae B) | Evaluation Results Algae C (Algae C) | Algicidal effect, assessment in words (algae A to C)
O=S(=O)(O)NCl [compound 4, chlorosulfamic acid] | +++ | + | ++ | a sufficient effect also cannot be obtained
N#CC(Br)(Br)C(N)=O [Comparative Example 7, 2,2-dibromo-3-nitrilopropion amide] | ++ | + | +++ | –
O=S(=O)(O)NCl [compound 2, chlorosulfamic acid] | +++ | ++ | +++ | –
O=S(=O)(O)NCl [compound 3, chlorosulfamic acid] | +++ | ++ | +++ | –
O=S(=O)(O)NCl [compound 5, chlorosulfamic acid] | +++ | + | ++ | a sufficient effect also cannot be obtained
O=[N+]([O-])C(Br)(CO)CO [Comparative Example 12, 2-bromo-2-nitro-1,3-propanediol] | ++ | ++ | +++ | –
O=S(=O)(O)NCl [Comparative Example 1, chlorosulfamic acid] | +++ | ++ | +++ | –
Cn1sc(Cl)cc1=O [Comparative Example 6, 5-chloro-2-methyl-4-isothiazolone-3-one] | ++ | + | +++ | a sufficient effect cannot be obtained
